Source: patent publication US20100035871A1, “BENZOXAZINE DERIVATIVES AND USES THEREOF” (priority 2006, published 2010)
Where two headings read alike, the source gives them in different places.

Columns and labels:
human 5-HT2C receptor [1] = target: T1, human 5-HT2C receptor (Homo sapiens, UniProt P28335); assay: 5-HT2C receptor-stimulated calcium mobilization (FLIPR) in CHO cells; format: cell-based; conditions: for Emax: CHO, read-out: 5-HT2C Function EMax (%); for EC50: calcium mobilization, CHO cells, read-out: 5-HT2C Function EC50
T1 construct: expressed in transfected cells; host or cells: CHO (Chinese Hamster Ovary) cells; membrane preparation
T1 sequence (P28335 33-458): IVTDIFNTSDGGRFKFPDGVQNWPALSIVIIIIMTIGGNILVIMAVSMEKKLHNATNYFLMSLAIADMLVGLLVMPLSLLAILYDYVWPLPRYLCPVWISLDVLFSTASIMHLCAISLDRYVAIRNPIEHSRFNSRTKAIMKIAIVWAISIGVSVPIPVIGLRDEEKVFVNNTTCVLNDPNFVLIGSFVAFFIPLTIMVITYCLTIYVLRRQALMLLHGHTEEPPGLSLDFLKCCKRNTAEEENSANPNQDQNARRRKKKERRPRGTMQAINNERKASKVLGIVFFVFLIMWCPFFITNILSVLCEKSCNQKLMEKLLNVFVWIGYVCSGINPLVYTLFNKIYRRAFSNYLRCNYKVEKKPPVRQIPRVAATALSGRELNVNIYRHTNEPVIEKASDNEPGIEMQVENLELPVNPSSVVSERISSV

human 5-HT2C receptor [2] = target: T1, human 5-HT2C receptor; assay: 5-HT2C receptor binding, [125I]DOI displacement, membranes of transfected CHO cells
[3] = read-out: 5-HT2C Binding Ki avg

Compound	Ki (human 5-HT2C receptor [2]; [3])	further results
NCC1CNc2cccc(-c3ccc(Cl)cc3Cl)c2O1 (racemic) [Example 15, 1-[8-(2,4-Dichlorophenyl)-3,4-dihydro-2H-1,4-benzoxazin-2-yl]methanamine]	0.0159 µM	Emax (human 5-HT2C receptor [1]): 70%; EC50 (human 5-HT2C receptor [1]): 0.008 µM
COc1ccc(-c2cc(Cl)cc3c2NC(CN)CO3)c(C)c1 (racemic) [Example 27, 1-[7-chloro-5-(4-methoxy-2-methylphenyl)-3,4-dihydro-2H-1,4-benzoxazin-3-yl]methanamine]	0.0532 µM	Emax (human 5-HT2C receptor [1]): 47%; EC50 (human 5-HT2C receptor [1]): 1.29 µM
NC[C@@H]1CNc2cccc(-c3ccccc3Cl)c2O1 [Example 40, 1-[(2R)-8-(2-chlorophenyl)-3,4-dihydro-2H-1,4-benzoxazin-2-yl]methanamine]	0.0605 µM	Emax (human 5-HT2C receptor [1]): 45%; EC50 (human 5-HT2C receptor [1]): 0.0443 µM
COc1ccc(-c2cccc3c2OC(CN)CN3)c(C)c1 (racemic) [Example 24, 1-[8-(4-Methoxy-2-methylphenyl)-3,4-dihydro-2H-1,4-benzoxazin-2-yl]methanamine]	0.0149 µM	Emax (human 5-HT2C receptor [1]): 75%; EC50 (human 5-HT2C receptor [1]): 0.025 µM
NCC1CNc2cccc(-c3cc(Cl)ccc3Cl)c2O1 (racemic) [Example 14, 1-[8-(2,5-Dichlorophenyl)-3,4-dihydro-2H-1,4-benzoxazin-2-yl]methanamine]	0.0064 µM	Emax (human 5-HT2C receptor [1]): 60%; EC50 (human 5-HT2C receptor [1]): 0.012 µM
Cc1ccccc1-c1cccc2c1OC(CN)CN2 (racemic) [Example 17, 1-[8-(2-Methylphenyl)-3,4-dihydro-2H-1,4-benzoxazin-2-yl]methanamine]	0.031 µM	Emax (human 5-HT2C receptor [1]): 72%; EC50 (human 5-HT2C receptor [1]): 0.101 µM
CN1CC(CN)Oc2c(-c3ccccc3F)cccc21 (racemic) [Example 7, 1-[8-(2-Fluorophenyl)-4-methyl-3,4-dihydro-2H-1,4-benzoxazin-2-yl]methanamine]	0.0195 µM	Emax (human 5-HT2C receptor [1]): 60%; EC50 (human 5-HT2C receptor [1]): 0.072 µM
CCCN1CC(CN)Oc2c(-c3ccccc3Cl)cccc21 (racemic) [Example 21, 1-[8-(2-Chlorophenyl)-4-propyl-3,4-dihydro-2H-1,4-benzoxazin-2-yl]methanamine]	0.064 µM	–
NCC1COc2cc(F)cc(-c3ccccc3C(F)(F)F)c2N1 (racemic) [Example 55, 1-{7-fluoro-5-[2-(trifluoromethyl)phenyl]-3,4-dihydro-2H-1,4-benzoxazin-3-yl}methanamine]	0.0193 µM	Emax (human 5-HT2C receptor [1]): 54%; EC50 (human 5-HT2C receptor [1]): 0.331 µM
COc1ccc(-c2cccc3c2O[C@@H](CN)CN3)c(Cl)c1 [Example 52, 1-[(2S)-8-(2-chloro-4-methoxyphenyl)-3,4-dihydro-2H-1,4-benzoxazin-2-yl]methanamine]	0.00905 µM	Emax (human 5-HT2C receptor [1]): 78%; EC50 (human 5-HT2C receptor [1]): 0.00017 µM
COc1ccc(-c2cc(Cl)cc3c2N(C)C(CN)CO3)c(C)c1 (racemic) [Example 28, 1-[7-chloro-5-(4-methoxy-2-methylphenyl)-4-methyl-3,4-dihydro-2H-1,4-benzoxazin-3-yl]methanamine]	1.12 µM	–
CN1CC(CN)Oc2c(-c3ccccc3)cccc21 (racemic) [Example 9, 1-(4-Methyl-8-phenyl-3,4-dihydro-2H-1,4-benzoxazin-2-yl)methanamine]	0.161 µM	–
COc1ccccc1-c1cc(F)cc2c1NC(CN)CO2 (racemic) [Example 64, 1-[7-fluoro-5-(2-methoxyphenyl)-3,4-dihydro-2H-1,4-benzoxazin-3-yl]methanamine]	0.291 µM	–
Cc1cc(Cl)ccc1-c1cccc2c1O[C@H](CN)CN2 [Example 42, 1-[(2R)-8-(4-chloro-2-methylphenyl)-3,4-dihydro-2H-1,4-benzoxazin-2-yl]methanamine]	0.529 µM	–
CSc1ccc2c(c1)C(N1CCN(C)CC1)Cc1ccccc1S2 (stereo not drawn) [Methiothepin, reference compound]	–	Ki (human 5-HT2C receptor [2]; reference compounds, value (95% confidence interval), [125I]DOI binding, read-out: Ki): 0.0046 µM
COc1cc(CC(C)N)c(OC)cc1I (stereo not drawn) [[^125I] DOI, reference compound]	–	Kd (human 5-HT2C receptor [2]; saturation binding with increasing concentrations of [125I] DOI, read-out: dissociation constant, KD): 0.0004 µM
COc1ccc(-c2cccc3c2O[C@@H](CN)CN3)cc1 [Example 51, 1-[(2S)-8-(4-methoxyphenyl)-3,4-dihydro-2H-1,4-benzoxazin-2-yl]methanamine]	0.136 µM	–
NCC1COc2cc(Cl)cc(-c3ccccc3F)c2N1 (racemic) [Example 33, 1-[7-chloro-5-(2-fluorophenyl)-3,4-dihydro-2H-1,4-benzoxazin-3-yl]methanamine]	0.152 µM	–
COc1ccccc1-c1cc(Cl)cc2c1NC(CN)CO2 (racemic) [Example 34, 1-[7-chloro-5-(2-methoxyphenyl)-3,4-dihydro-2H-1,4-benzoxazin-3-yl]methanamine]	0.749 µM	–
NCC1COc2cc(F)cc(-c3ccccc3Cl)c2N1 (racemic) [Example 57, 1-[5-(2-chlorophenyl)-7-fluoro-3,4-dihydro-2H-1,4-benzoxazin-3-yl]methanamine]	0.155 µM	–

Compound	Ki (human 5-HT2C receptor [2]; [3])	further results
COc1ccc(-c2cccc3c2O[C@H](CN)CN3)cc1 [Example 45, 1-[(2R)-8-(4-methoxyphenyl)-3,4-dihydro-2H-1,4-benzoxazin-2-yl]methanamine]	–	5-HT2C Binding, % @1 μM (human 5-HT2C receptor [2]; @1 μM): 18% @1 μM
COc1ccc(-c2cc(F)cc3c2NC(CN)CO3)c(C)c1 (racemic) [Example 56, 1-[7-fluoro-5-(4-methoxy-2-methylphenyl)-3,4-dihydro-2H-1,4-benzoxazin-3-yl]methanamine]	0.16 µM	–
NCC1COc2cc(Cl)cc(-c3ccccc3)c2N1 (racemic) [Example 29, 1-(7-chloro-5-phenyl-3,4-dihydro-2H-1,4-benzoxazin-3-yl)methanamine]	0.421 µM	–
Cc1cc(Cl)ccc1-c1cc(F)cc2c1NC(CN)CO2 (racemic) [Example 63, 1-[5-(4-chloro-2-methylphenyl)-7-fluoro-3,4-dihydro-2H-1,4-benzoxazin-3-yl]methanamine]	0.227 µM	–
NCC1COc2cc(F)cc(-c3ccccc3F)c2N1 (racemic) [Example 62, 1-[7-fluoro-5-(2-fluorophenyl)-3,4-dihydro-2H-1,4-benzoxazin-3-yl]methanamine]	0.794 µM	–
NCC1COc2cc(Cl)cc(-c3ccc(Cl)cc3C(F)(F)F)c2N1 (racemic) [Example 37, 1-{7-chloro-5-[4-chloro-2-(trifluoromethyl)phenyl]-3,4-dihydro-2H-1,4-benzoxazin-3-yl}methanamine]	0.166 µM	–
NCC1COc2cc(Cl)cc(-c3ccc(C(F)(F)F)cc3C(F)(F)F)c2N1 (racemic) [Example 38, 1-{5-[2,4-bis(trifluoromethyl)phenyl]-7-chloro-3,4-dihydro-2H-1,4-benzoxazin-3-yl}methanamine]	0.287 µM	–
Cc1ccccc1-c1cc(F)cc2c1NC(CN)CO2 (racemic) [Example 58, 1-[7-fluoro-5-(2-methylphenyl)-3,4-dihydro-2H-1,4-benzoxazin-3-yl]methanamine]	0.155 µM	–
CCN1CC(CN)Oc2c(-c3ccccc3Cl)cccc21 (racemic) [Example 19, 1-[8-(2-Chlorophenyl)-4-ethyl-3,4-dihydro-2H-1,4-benzoxazin-2-yl]methanamine]	0.0805 µM	–
COc1ccc(-c2cc(Cl)cc3c2NC(CN)CO3)cc1 (racemic) [Example 26, 1-[7-Chloro-5-(4-methoxyphenyl)-3,4-dihydro-2H-1,4-benzoxazin-3-yl]methanamine]	0.158 µM	–
Cc1ccccc1-c1cc(Cl)cc2c1NC(CN)CO2 (racemic) [Example 30, 1-[7-chloro-5-(2-methylphenyl)-3,4-dihydro-2H-1,4-benzoxazin-3-yl]methanamine]	0.155 µM	–
Cc1cc(Cl)ccc1-c1cccc2c1O[C@@H](CN)CN2 [Example 48, 1-[(2S)-8-(4-chloro-2-methylphenyl)-3,4-dihydro-2H-1,4-benzoxazin-2-yl]methanamine]	0.0993 µM	–
Cc1cc(Cl)ccc1-c1cc(Cl)cc2c1NC(CN)CO2 (racemic) [Example 35, 1-[7-chloro-5-(4-chloro-2-methylphenyl)-3,4-dihydro-2H-1,4-benzoxazin-3-yl]methanamine]	0.173 µM	–
CN1CC(CN)Oc2c(-c3cccc(Cl)c3)cccc21 (racemic) [Example 66, 1-[8-(3-chlorophenyl)-4-methyl-3,4-dihydro-2H-1,4-benzoxazin-2-yl]methanamine]	0.258 µM	–
NC[C@H]1CNc2cccc(-c3ccccc3F)c2O1 [Example 49, 1-[(2S)-8-(2-fluorophenyl)-3,4-dihydro-2H-1,4-benzoxazin-2-yl]methanamine]	0.143 µM	–
Cc1ccc(-c2cc(F)cc3c2NC(CN)CO3)c(C(F)(F)F)c1 (racemic) [Example 60, 1-{7-fluoro-5-[4-methyl-2-(trifluoromethyl)phenyl]-3,4-dihydro-2H-1,4-benzoxazin-3-yl}methanamine]	0.0651 µM	–
COc1ccc(-c2cc(F)cc3c2NC(CN)CO3)cc1 (racemic) [Example 61, 1-[7-fluoro-5-(4-methoxyphenyl)-3,4-dihydro-2H-1,4-benzoxazin-3-yl]methanamine]	0.38 µM	–
NC[C@@H]1CNc2cccc(-c3ccccc3F)c2O1 [Example 43, 1-[(2R)-8-(2-fluorophenyl)-3,4-dihydro-2H-1,4-benzoxazin-2-yl]methanamine]	0.0967 µM	–
NCC1COc2cc(Cl)cc(-c3ccccc3C(F)(F)F)c2N1 (racemic) [Example 25, 1-{7-Chloro-5-[2-(trifluoromethyl)phenyl]-3,4-dihydro-2H-1,4-benzoxazin-3-yl}methanamine]	0.0682 µM	–
